Patent US11679140B2, “Prevention and/or treatment of hearing loss or impairment” (INSTITUT PASTEUR, priority 2015, dated 2023)
“Also recorded” adds a separate entry of the source.

What was measured:
[1] = tested on: mouse embryonic fibroblasts; assay: H2O2-induced peroxisome proliferation in mouse embryonic fibroblasts; format: cell-based
Procedure: Fibroblasts were isolated from mouse embryos at embryonic day 13.5 and cultured as described by Xu (2005). The cells were incubated in DMEM (Gibco) supplemented with 0.1 mM β-mercaptoethanol, and 0.5 mM H2O2 for 4 hours at 37° C., under normoxic conditions (95% air). The culture medium was then replaced with H2O2-free medium. Cell viability was checked 18 hours after H2O2 treatment, by measuring mitochondrial reductase activity with the MTT (3-(4,5-dimethylthiazol-2-yl)-2,5-diphenyl tetrazolium bromide) (Sigma M2128) assay. A polyclonal antibody against peroxisome membrane protein 70 (PMP70, Abcam ab3421) was used to label peroxisomes.

[2] = tested on: Pjvk−/− mice; assay: Auditory brainstem responses (ABR) in Pjvk−/− mice; format: in vivo, mouse; details: for recovery of ABR wave I latency and ABR interwave I-IV: treated Pjvk−/− mice
Procedure: (§1) Auditory tests were performed in an anechoic room. They consisted of distortion-product otoacoustic emissions (DPOAEs), auditory brainstem responses (ABRs), electrically-evoked brainstem responses (EEBRs), and cochlear potentials. Mice were anesthetized with an intraperitoneal injection of a ketamine and levomepromazin mixture (100 mg/kg: 5 mg/kg) and their core temperature was kept at 37° C. with the help of a servo-controlled heating pad. The DPOAE at frequency 2f1-f2 was recorded in response to two equal level primary tones, f1 and f2, with f2/f1=1.20 (CubeDis system, Mimosa Acoustics; ER10B microphone, Etymotic Res.). Frequency f2 was swept at 1/10th octave steps from 4 to 20 kHz, and DPOAE level was plotted against frequency f2 (primary tone levels increased from 20 to 70 dB SPL in 10 dB steps, then to 75 dB SPL). DPOAE threshold was defined as the smallest primary level giving rise to a detectable DPOAE. ABRs in response to calibrated short tone bursts in the 5-40 kHz range (repetition rate 17/s) were derived from the synchronous averaging of electroencephalograms recorded between subcutaneous stainless steel electrodes at the vertex and ipsilateral mastoid, with the help of a standard digital averaging system (CED1401+). A hundred responses to the tone bursts were averaged except within 10 dB of the ABR threshold (defined as the smallest tone-burst level giving rise to at least one repeatable wave above noise background level, 150 nV in an anesthetized animal), for which 300 tone bursts were used. Once ABR thresholds had been assessed, ABRs in response to 95 and 105 dB SPL tone bursts (100 averages) were collected for analysis of suprathreshold ABR waveforms, amplitudes and latencies. Controlled sound exposure was applied with the same acoustic probe used for ABRs without moving the sound system, so that pre- and post-exposure ABRs shared the same calibration. Intense stimuli were the same tone-bursts used for ABR measurements at 105 dB SPL, presented 1,000 times at the same repetition rate of 17/s. […]
N-acetyl-L-cysteine (L-NAC; Sigma) or taurine (Sigma) was administrated to pregnant Pjvk^−/− mice in the drinking water. A daily dose of 1% L-NAC or 2% taurine was given to the mother during and after pregnancy, so that pups received them from birth on by feeding on the mother's milk. The treatment was continued until P21, and the auditory function of the treated Pjvk^−/− pups was tested at P21.

[3] = tested on: Pjvk−/− mice (OHC function); assay: Distortion-product otoacoustic emissions (DPOAE) in Pjvk−/− mice; format: in vivo, mouse; details: antioxidant-treated Pjvk−/− pups, around P21
Procedure: as §1, with “DPOAE threshold was defined as the smallest primary level giving rise to a detectable DPOAE.” left out, “A hundred responses to the tone bursts were averaged except within 10 dB of the ABR threshold (defined as the smallest tone-burst level giving rise to at least one repeatable wave above noise background level, 150 nV in an anesthetized animal), for which 300 tone bursts were used.” left out, “latencies.” for “latencies. Controlled sound exposure was applied with the same acoustic probe used for ABRs without moving the sound system, so that pre- and post-exposure ABRs shared the same calibration. Intense stimuli were the same tone-bursts used for ABR measurements at 105 dB SPL, presented 1,000 times at the same repetition rate of 17/s.”

[4] = tested on: Pjvk−/− mice (auditory neurons); assay: Electrically-evoked brainstem responses (EEBR) with controlled electrical stimulation in Pjvk−/− mice; format: in vivo, mouse; details: for EEBR wave E IV amplitude / resistance to high-rate electrical stimulation: 200/s for 1 minute, treated Pjvk−/− mice
Description: Electrical stimulations of the eighth cranial nerve were delivered by a silver electrode placed in the round-window niche and excited by biphasic electrical impulses (neutral electrode in neck muscles; peak amplitude of electrical stimulus about 0.5 V; duration of the positive and negative phases 150 microseconds; adjustable repetition rate). EEBRs were extracted using the same setup as for ABRs (Roux et al., 2006), in response to 100 electrical impulses presented with alternating polarities (repetition rate 17 Hz). EEBR threshold was defined as the smallest electrical amplitude eliciting repeatable waves above noise background level (the same as for ABRs), labelled from E II to E IV in reference to their ABR equivalents II-IV. Controlled electrical stimulation was applied at 5 dB above EEBR detection threshold with a 200 Hz repetition rate. Occasionally, the silver electrode on the round window served for recording Compound Action Potentials (CAPs) in response to the same tone-bursts used for ABR studies (averages of 32 presentations, repetition rates 17/s), prior to EEBR data collection. These recordings served to check that CAP thresholds and ABR thresholds were within 2 dB of each other at all frequencies, and the exact position of ABR wave I could be ascertained form the larger wave N1, its equivalent on CAP recordings. This was particularly important in mice with abnormally small wave I to avoid incorrect identifications (when wave I was reduced to a very small flattened deflection resembling a summating potential, the slightly larger wave II might have been mistakenly labelled wave I on ABR recordings, while wave N1, even when small, kept its characteristic shape).
Intracochlear viral transduction was carried out as described by Akil et al. (2012). […]
Which cells are the targets of the pejvakin defect, and are they all hypervulnerable to sound exposure? […] Moreover, Electrically-Evoked Brainstem Responses (EEBR) to a direct electric stimulation of the auditory neurons, which test the response of the auditory pathway beyond the cochlea, was also analysed. […]

[5] = antioxidant-treated Pjvk−/− mice, P21

OO [H2O2]
increase in number of peroxisomes after H2O2 treatment, Pjvk+/+ fibroblasts ([1]; 0.5 mM H2O2, Pjvk+/+ MEFs): 46% | number of peroxisomes after H2O2 treatment, Pjvk−/− fibroblasts ([1]; 0.5 mM H2O2, Pjvk−/− MEFs): remained unchanged

CC(=O)N[C@@H](CS)C(=O)O [N-acetyl cysteine, N-acetyl-L-cysteine]
protective effect on IHCs and neurons ([2]; Pjvk−/− mice): moderate protective effect | number of auditory neurons that responded to sound stimulation in synchrony ([2]; Pjvk−/− pups treated via mother's milk): restored | ABR threshold at 10 kHz ([2]; antioxidant via mother's drinking water/milk, Pjvk−/− pups tested around P21): 72.2±9.3 dB SPL | ABR wave I amplitude (in words) [2, 5]: fell within the normative range | ABR wave I latency [2, 5]: 1.55 ± 0.18 ms | amplitude of ABR wave I in response to 105 dB SPL [2, 5]: 4.35±1.16 μV | ABR interwave I-IV latency ([2]; antioxidant-treated Pjvk−/− pups, P21): 2.91 ± 0.32 ms | ABR thresholds (recovery) ([2]; antioxidant-treated vs untreated Pjvk−/− pups, P21, listed as NAC): slight recovery; also recorded: slightly improved | recovery of ABR wave I latency and ABR interwave I-IV ([2]; P21): no significant recovery | effect on OHCs (DPOAE) [3]: no beneficial effect on OHCs | EEBR wave E IV amplitude / resistance to high-rate electrical stimulation [4]: resisted to high-rate electric stimulation of auditory pathways better than untreated | EEBR wave E IV amplitude / resistance to high-rate electrical stimulation ([4]; listed as NAC): remained unaffected | recovery of neuronal function after high-rate electrical stimulation ([4]; 5 min after high-rate exposure): Full recovery of neuronal function

NCCS(=O)(=O)O [taurine]
recovery of ABR wave I latency and ABR interwave I-IV ([2]; P21): no significant recovery | effect on OHCs (DPOAE) [3]: no beneficial effect on OHCs
